Measurements: patent US10095829B2, “Computer implemented methods of treating lung cancer” (WORLDWIDE INNOVATIVE NETWORK, priority 2009, dated 2018)

How the values were obtained:
[1] = system: bronchial adenocarcinoma T4 with bones and pleural metastases; details: Example 2 patient; for Clinical outcome: bronchial adenocarcinoma
[2] = system: non-small cell lung carcinoma (NSCLC), cT4, N0, M1; assay: Clinical course under treatment, patient of Example 1; assay type: in vivo, human; details: Example 1 patient, new subclavious metastasis
Excerpt: The patient was a person. They suffered of a non-small cell lung carcinoma (NSCLC), cT4, N0, M1. […] For HKI 272, the patient has been included in a clinical trial.
Lapatinib, an anti-HER1 and -HER2 inhibitor, was justified, even if no mutation was detected in EGFR, because EGF overexpressed 15 folds in the patient and it was needed to continue HKI 272.

[3] = system: primary bronchial adenocarcinoma with bilateral pulmonary metastases and asymptomatic cerebral metastases; assay: Clinical course under treatment, patient of Example 3; assay type: in vivo, human; details: Example 3 patient
Excerpt: A patient was diagnosed in May 2007 for a primary bronchial adenocarcinoma with bilateral pulmonary metastases and asymptomatic cerebral metastases. A surgical treatment has been carried out in November 2008 and two therapeutic lines have been used, namely thirteen cycles of cisplatin-gemcitabin for the first line and Alimta for the second one.
However, based on this score table, avastin associated with a score of 384 has been selected.

Row | Compound | Clinical outcome [1] | Clinical outcome [3] | further results
1 | CCC1=C[C@@H]2CN(C1)Cc1c([nH]c3ccccc13)[C@@](C(=O)OC)(c1cc3c(cc1OC)N(C)[C@H]1[C@@](O)(C(=O)OC)[C@H](OC(C)=O)[C@]4(CC)C=CCN5CC[C@]31[C@@H]54)C2 [VINORELBINE] | the disease was stable, then progressed |  | Survival conferred ([1]; treatment since January 2010): three months survival
2 | CCOc1cc2ncc(C#N)c(Nc3ccc(OCc4ccccn4)c(Cl)c3)c2cc1NC(=O)/C=C/CN(C)C [HKI 272] |  |  | Duration of treatment until disease progression was observed [2]: 37 months
3 | Nc1nc2[nH]cc(CCc3ccc(C(=O)N[C@@H](CCC(=O)O)C(=O)O)cc3)c2c(=O)[nH]1 [PEMETREXED] |  | only associated with a disease progression | 
4 | BEVACIZUMAB: VEGFA gene is regarded as major target gene for bevacizumab |  | major response has been observed after two treatment cycles | 
5 | C#Cc1cccc(Nc2ncnc3cc(OCCOC)c(OCCOC)cc23)c1 [Tarceva] | inefficient and led to a rapid progression |  | 
